According to patent US20110306071A1, “Compositions and Methods for Identifying Substrate Specificity of Inhibitors of Gamma Secretase” (ELAN PHARMACEUTICALS, INC., priority 2007, published 2011):
Values belong to the molecule of their own block, whether it stands above or below them.

Columns and labels:
[1] = molecular target: T1, gamma secretase γ and ε cleavage of Fas-APPsw-DD (Homo sapiens, UniProt P49768); assay: Concurrent Aβ and AICD ELISA in Fas-APPsw-DD transfected 293 cells (APP γ versus ε cleavage); format: cell-based
T1 construct: active gamma secretase is endogenously and constitutively produced by the cell cultures; endogenous in cells; host or cells: HEK 293, transfected with Fas-APPsw-DD
Method: Polyclonal antibody AICD ELISA. HEK 293 cells were grown under standard conditions to ˜90% confluence. Cells were harvested, counted, and subsequently plated onto PDL-coated 60 mm dishes at 2×10^6 cells/dish in 5 mL media. The cells were allowed to settle onto the dishes for ˜4 hours. Transfection of various construct into cells was performed using standard techniques using Lipofectamine 2000™ (LF2K) (Invitrogen). Briefly, 2 μg plasmid DNA and 4 μL LF2K were diluted into separate 150 μL aliquots of Opti-MEM (Gibco), and allowed to stand for 10-15 minutes. The two aliquots were then mixed, and the DNA:Lipid complex allowed to form for about 20 minutes. The 300 μL DNA:Lipid complex was then added to the cells in 3 mL fresh media, and incubated overnight. In order to administer potential or known gamma secretase inhibitor compounds to cells, the transfected cells were harvested, replated into PDL-coated 24-well plates at 200,000 cells/well, and allowed to settle onto the plates for ˜4 hours. Cells were washed, and 500 μL fresh media added. […]
The term ‘non-selective’ in this instance refers to lack of selectivity for cell Aβ over Notch signaling (or GammaAPP over GammaNotch). […] The calculated γ/ε selectivity of the non-selective compounds (FIG. 11 and Table I) were 0.7, 1.1, 1.8 and 1.9 for DAPT, 44989, 46719 and the Merck compound, respectively. […]

[2] = molecular target: T2, gamma secretase cleavage of C99GVP (AICD-GVP) (Homo sapiens, UniProt P49768); assay: Luciferase reporter gene assay, AICD-GVP transactivation from C99GVP in HEK293 cells; format: cell-based; settings: C99-GVP, FIG. 5C
T2 construct: active gamma secretase is endogenously and constitutively produced by the cell cultures; endogenous in cells; host or cells: HEK 293, co-transfected with C99GVP, pG5E1B-luc and pCMV-β-gal
Method: Luciferase Reporter Gene Assay: Luciferase reporter assays were carried out 48 hr post-transfection. Cells seeded on 96-well plates (BD Biosciences) were washed once with PBS and harvested in 20 μl of reporter lysis buffer (Promega) per well. After adding 100 μl of luminescent substrate (Promega), the luciferase activity was measured with a MicroLumatPlus microplate luminometer (Berthold Technologies). The β-galactosidase activity was measured similarly, using a luminescent β-galactosidase substrate (BD Biosciences). As a control for transfection efficiency and general effect on transcription, the luciferase activity was normalized by measuring β-galactosidase activity on a duplicate plate. All measurements were done in triplicate and repeated at least three times.
Luciferase Assay. After confirming AICD-GVP generation in HEK cells, its ability to transactivate a luciferase reporter gene that contains Gal4 response elements in the upstream activation sequence (UAS) was tested. […] Some residual luciferase activity remained in the presence of excess gamma secretase inhibitors, even though identical treatment completely abolished AICD production as measured by Western blot (FIG. 5B). […]

[3] = tested on: gamma secretase (secreted Aβ40 and Aβ42); assay: Aβ sandwich ELISA of media from C99GVP or APP transfected HEK cells treated with inhibitors; format: cell-based, Human
Method: Inhibitor Treatment of Transfected HEK Cell: The transition state analogue gamma secretase inhibitor-L685,458 (Sigma) and the peptidomimetic inhibitor-DAPT (Dovey, H. F., et al., J Neurochem., 2001; 76:173-181) were dissolved in DMSO to make 20 mM stocks. Similarly, a number of Elan's series of sulfonamide inhibitors were prepared and used as described herein (see, also FIGS. 11-14). Inhibitors were added to cell cultures (e.g., HEK) at the indicated final concentration, and the treated cells were harvested 48 h post-transfection. The metallo-proteinase inhibitor TAPI-1 (Calbiochem) was used at a final concentration of 40 μM. The Aβ-degrading enzyme inhibitors, Bacitracin (Calbiochem) and phosphoramidon (Calbiochem) were used at final concentration of 1 mg/ml and 40 μM, respectively. All inhibitor experiments were performed in triplicate and repeated at least three times.
ELISAs used to quantify different Aβ species were performed using standard techniques as described above and in (Johnson-Wood, K., et al., Proc. Natl. Acad. Sci. U.S.A., 1997; 94: 1550-1555, incorporated by reference). The Aβ40 and Aβ42 peptides in the samples were captured onto 2G3 or 21F12 antibody coated plates, respectively, and detected with a biotinylated 2H3 antibody. The fluorescence signal generated from a streptavidin-alkaline phosphatase conjugate (Roche) was measured with a CytoFlour microplate reader (Applied Biosystems). Synthetic Aβ40 or Aβ42 peptides (Anaspec) were used to generate standard curves (FIG. 10). All measurements were done in triplicate.
Next, Aβ generation was characterized from C99GVP. Wild type HEK cells and the mock-transfection control secreted little Aβ into the conditioned media (FIG. 5D, lane 1). In contrast, transient expression of C99GVP led to robust Aβ production, as measured by IP/Western blot (FIG. 5D) and ELISAs that detect Aβ 40 and Aβ42 species, respectively ([…], top panel). […] Finally, we compared the Aβ-lowering potency of two inhibitors, using either C99GVP or the wild type APP as substrate. As determined by ELISA, the respective IC50 values for the two substrates are essentially identical (FIG. 5E).

gamma secretase = assay: Aβ production from C99GVP and mutant or chimeric substrates in transfected HEK cells (ELISA, IP/Western blot); format: cell-based, Human; settings: for effect on secreted Aβ / Aβ production compared with C99GVP control: FIGS. 8C, 8D, 9B, 9C; for drop of Aβ40: Aβ40 ELISA, FIG. 9C; for reduction in total Aβ: IP/Western blot densitometry, FIG. 9B
Description: Plasmid Construction of JMD Chimeric Substrates: A pcDNA3.1-C99 plasmid similar to the previously described SPA4CT-LE construct (Dyrks, et al., FEBS Lett., 1992; 309: 20-24) was generated by standard PCR techniques. The APP signal peptide was fused to the N-terminus of the C99 fragment via a dipeptide leucine-glutamic acid (LE) linker. The strategy used to generate the pcDNA3.1-C99GVP construct was similar to a previously described method (Karlstrom, H., et al., J. Biol. Chem., 2002; 277: 6763-6766). (See, generally, FIG. 3). Briefly, an AscI site was introduced immediately 3′ of the nucleotides encoding the triple-lysine (K) membrane anchor of C99, where the GVP coding sequence was subsequently inserted in frame (to the C-terminal side of the lysine membrane anchor sequence of C99). […] All three chimeras were constructed by using a two-stage PCR method with two pairs of overlapping primers (for list of primers, see Table I). These chimeric substrates were characterized to assess activity as gamma secretase substrates and subsequent production and secretion of Aβ and AICD (FIGS. 6-7). […] The C99GVP-SLSS quadruple JMD chimera was also constructed with the same PCR method. Point mutations within the luminal juxtamembrane domain (i.e., C99GVP-G25S, S26L, N27S and K28S; FIGS. 2 and 9A-D) were generated using QuikChange (Stratagene) site-directed mutagenesis kit according to the manufacturer's instructions. All cDNAs were verified by sequencing. The Aβ and Aβ-like peptides generated from C99GVP and the various chimeric substrates were numbered with reference to the first N-terminal residue (Asp-1) of the Aβ peptide.
Cell Culture and Transient Transfection: Human embryonic kidney 293 (HEK 293) cells (ATCC) were grown in Dulbecco's Modified Eagle Medium with High Glucose (DMEM, obtained from Gibco/Invitrogen, Cat #11960) supplemented with 10% fetal bovine serum (Hyclone, SV 30014.03) and 50 units/ml penicillin and streptomycin (37° C., 5% CO2). Cells were used at less than passage number 30. At the time of seeding, viability of cells was greater than 95% as determined using a Vi-Cell Analyzer (Beckman-Coulter). Confluence of cells on plates was kept at greater than 95% during all phases of the experiment as determined with a standard tissue culture inverted microscope. All transfections were carried out on 5×10^6 cells in 6-well tissue culture plates (Costar). The following 3 plasmids: pG5E1B-luc, 200 ng (gift from R. Maurer, OHSU); pCMV-β-gal, 100 ng (gift from R. Maurer, OHSU); C99GVP or the various chimeric constructs, 200-400 ng were added together to each well. FuGENE6 reagent (Roche Cat. #11-814443001) was used according to manufacturer's protocol for the transient transfection of adherent cells. Transfected cells were reseeded onto 12 well (2×10^6 cells) and/or 96-well (5×10^4 cells) plates (Costar) 16 h post-transfection; fresh media was added either with or without gamma secretase inhibitors. The cells and conditioned media were harvested 48 h post-transfection for analysis.
Immunoprecipitation (IP) and Western Blot Detection of Aβ: Total Aβ peptides in conditioned medium or cell lysate were immuno-precipitated at 4° C. overnight with 4 μg of the 2H3 antibody, followed by incubation with 50 μl of a 50% protein G-Sepharose (GE Healthcare) slurry for 1 hr and three washes in the same lysis buffer as described above in the Western Blot discussion. Proteins were eluted from the solid-phase immunoprecipitates in Laemmli sample buffer by heating at 70° C. for 5 min and resolved on 10-20% Tris-Tricine SDS-PAGE or the modified Tris-Tricine/8M urea gels (Qi-Takahara, Y., et al., J Neurosci. (2005; 25, 436-445). After transferring onto nitrocellulose membranes (Invitrogen), the membranes were heated to 98° C. for 5 min in PBS, immunostained with the 2H3 antibody and visualized with Super-signal West Pico chemiluminescent substrate (Pierce). Each experiment was repeated at least three times. […]

γ/ε selectivity = IC50 AICD/IC50 Aβ [1]: 1.9
Aβ potency (IC50) with C99GVP versus native APP substrate ([3]; FIG. 5E): equal Aβ potency
Molecule: CC(C)C[C@H](NC(=O)[C@H](Cc1ccccc1)C[C@@H](O)[C@H](Cc1ccccc1)NC(=O)OC(C)(C)C)C(=O)N[C@@H](Cc1ccccc1)C(N)=O [L-685,458]
luciferase reporter transactivation by AICD-GVP [2]: block luciferase reporter transactivation
secreted Aβ (Aβ40 and Aβ42) ([3]; 5 μM, 24 h, FIG. 5D): block secreted Aβ

Molecule: C99GVP-APLP2*: APLP2 JMD swap chimera of C99GVP retaining the pre-TMD GSNK motif of APP (SEQ ID NO:19) (LEDAEFRHDSGLEEERESVGPLREDFGSNKGAIIGLMVGGVVIATVIVITLVML)
effect on secreted Aβ / Aβ production compared with C99GVP control (gamma secretase): indistinguishable from the C99GVP control

Molecule: C99GVP-K28S: C99GVP point mutant K28S in the GSNK motif (SEQ ID NO:46) (LEDAEFRHDSGYEVHHQKLVFFAEDVGSNSGAIIGLMVGGVVIATVIVITLVML)
drop of Aβ40 (gamma secretase; versus C99GVP): ~90%
reduction in total Aβ (gamma secretase; versus C99GVP): ~90%

Molecule: C99GVP-S26L: C99GVP point mutant S26L in the GSNK motif (SEQ ID NO:44) (LEDAEFRHDSGYEVHHQKLVFFAEDVGLNKGAIIGLMVGGVVIATVIVITLVML)
drop of Aβ40 (gamma secretase; versus C99GVP): 52.7±2.3%
reduction in total Aβ (gamma secretase; versus C99GVP): 65.7±8.5%

Molecule: G25S: C99GVP point mutant G25S in the GSNK motif (SEQ ID NO:43) (LEDAEFRHDSGYEVHHQKLVFFAEDVSSNKGAIIGLMVGGVVIATVIVITLVML)
effect on secreted Aβ / Aβ production compared with C99GVP control (gamma secretase): no obvious effect

Molecule: N27S: C99GVP point mutant N27S in the GSNK motif (SEQ ID NO:45) (LEDAEFRHDSGYEVHHQKLVFFAEDVGSSKGAIIGLMVGGVVIATVIVITLVML)
effect on secreted Aβ / Aβ production compared with C99GVP control (gamma secretase): no obvious effect

B1: C99GVP-SLSS: C99GVP in which the GSNK motif was substituted with SLSS from APLP2 (SEQ ID NO:51) (protein)
chain: DAEFRHDSGYEVHHQKLVFFAEDVSLSSGAIIGLMVGGVVIATVIVITLVMLKKKKLLSSIEQACDICRLKKLKCSKEKPKCAKCLKNNWECRYSPKTKRSPLTRAHLTEVESRLERLEQLFLLIFPREDLDMILKMDSLQDIKALLTGLFVQDNVNKDAVTDRLASVETDMPLTLRQHRISATSSSEESSNKGQRQLTVSGIPGDLAPPTDVSLGDELHLDGEDVAMAHADALDDFDLDMLGDGDSPGPGFTPHDSAPYGALDMADFEFEQMFTDALGIDEYGGQYTSIHHGVVEVDAAVTPEERHLSKMQQNGYENPTYKFFEQMQN
reduction in secreted Aβ (gamma secretase; versus C99GVP, FIGS. 9B and 9C): ~97%
